According to patent US4347319A, “Microbiological epoxidation process” (priority 1980, dated 1982):

Experiments:
[1] = system: Methylomonas methanica CRL M4P NRRL B-11,205; assay: Sec. alcohol oxidation by cell suspensions of methanol-grown cells; assay type: cell-based; settings: sec. alcohol to methyl ketone
Text: (§1) In this example, the procedure of Example 1 was repeated except that a plurality of the methane-utilizing methylotrophic microorganisms of the invention were each aerobically grown in a methanol-containing nutrient medium instead of a methane-containing medium. The nutrients in the medium were the same as indicated in Example 1 except that 0.4% v/v methanol was used as the alcohol dehydrogenase enzyme inducer and major source of carbon and energy for growth. Following growth the cells were harvested and washed as described in Example 1. The resting cells of the induced methanol-grown methylotrophic microorganisms were then contacted with a […] under aerobic conditions in a buffered solution by the procedure described in Example 1.

[2] = system: Methylococcus capsulatus CRL M1 NRRL B-11,219; assay: as above; assay type: cell-based; settings: sec. alcohol to methyl ketone
Text: as §1

[3] = system: Methylosinus trichosporium CRL 15 NRRL B-11,202; assay: as above; assay type: cell-based; settings: sec. alcohol to methyl ketone
Text: as §1

[4] = system: Methylobacter chroococcum CRL M6 NRRL B-11,214; assay: as above; assay type: cell-based; settings: sec. alcohol to methyl ketone
Text: as §1

[5] = system: Methylobacter vinelandii CRL M5Y NRRL B-11,218; assay: as above; assay type: cell-based; settings: sec. alcohol to methyl ketone
Text: as §1

[6] = system: Methylobacterium organophilum CRL 26 NRRL B-11,222; assay: as above; assay type: cell-based; settings: sec. alcohol to methyl ketone
Text: as §1

[7] = system: Methylocystis parvus CRL 18 NRRL B-11,204; assay: as above; assay type: cell-based; settings: sec. alcohol to methyl ketone
Text: as §1

[8] = system: cell extract of Kloeckera sp. strain A2 NRRL-Y-11,420; assay: Oxidation of secondary alcohols to methylketone by cell extracts of yeasts; assay type: biochemical; settings: methanol-grown; cell extract + NAD^+; sec. alcohol to methyl ketone; gas chromatography
[9] = system: cell extract of Hansenula polymorpha ATCC 26,012; assay: as above; assay type: biochemical; settings: methanol-grown; cell extract + NAD^+; sec. alcohol to methyl ketone; gas chromatography
[10] = system: Hansenula polymorpha ATCC 26012; assay: Oxidation of sec-alcohols to ketones by cell suspensions of yeasts; assay type: cell-based; settings: sec-alcohol to methyl ketone
[11] = system: cell extract of Pichia sp. NRRL-Y-11,328; assay: Oxidation of secondary alcohols to methylketone by cell extracts of yeasts; assay type: biochemical; settings: methanol-grown; cell extract + NAD^+; sec. alcohol to methyl ketone; gas chromatography
[12] = system: Torulopsis sp. Strain A1 (NRRLY-11,419); assay: Oxidation of sec-alcohols to ketones by cell suspensions of yeasts; assay type: cell-based; settings: sec-alcohol to methyl ketone
[13] = system: cell extract of Torulopsis sp. strain A1 NRRL-Y-11,419; assay: Oxidation of secondary alcohols to methylketone by cell extracts of yeasts; assay type: biochemical; settings: methanol-grown; cell extract + NAD^+; sec. alcohol to methyl ketone; gas chromatography
Pichia sp. NRRL-Y-11328 = assay: Oxidation of sec-alcohols to ketones by cell suspensions of yeasts; assay type: cell-based; settings: sec-alcohol to methyl ketone
[14] = system: purified secondary alcohol dehydrogenase from Pichia sp. NRRL Y-11,328; assay: Substrate specificity, electron acceptor and stoichiometry of purified yeast SADH; assay type: biochemical; settings: examined spectrophotometrically
[15] = system: cell extract of Candida utilis ATCC 26,387; assay: Oxidation of secondary alcohols to methylketone by cell extracts of yeasts; assay type: biochemical; settings: methanol-grown; cell extract + NAD^+; sec. alcohol to methyl ketone; gas chromatography
[16] = system: Candida utilis ATCC 26387; assay: Oxidation of sec-alcohols to ketones by cell suspensions of yeasts; assay type: cell-based; settings: sec-alcohol to methyl ketone
[17] = system: Kloeckera sp. Strain A2 (NRRLY-11,420); assay: as above; assay type: cell-based; settings: sec-alcohol to methyl ketone

CCCC(C)O (centres unmarked) [2-Pentanol]
Conversion Rates [1]: 0.05 μmoles/hr/mg protein | Conversion Rates [2]: 0.24 μmoles/hr/mg protein | Conversion Rates [3]: 0.09 μmoles/hr/mg protein | Conversion Rates [4]: 0.08 μmoles/hr/mg protein | Conversion Rates [5]: 0.05 μmoles/hr/mg protein | Conversion Rates [6]: 1.0 μmoles/hr/mg protein | Conversion Rates [7]: 0.07 μmoles/hr/mg protein | Conversion Rate [8]: 1.2 μmoles/hr/mg Protein | Conversion Rate [9]: 1.0 μmoles/hr/mg Protein | Conversion Rate ([10]; growth substrate Ethanol): 1.1 μmoles/hr/mg of protein | Conversion Rate ([10]; growth substrate Methanol): 1.4 μmoles/hr/mg of protein | Conversion Rate ([10]; growth substrate Methylamine): 1.2 μmoles/hr/mg of protein | Conversion Rate ([10]; growth substrate Methylformate): 1.3 μmoles/hr/mg of protein | Conversion Rate ([10]; growth substrate Propylamine): 0.82 μmoles/hr/mg of protein | Conversion Rate [11]: 1.2 μmoles/hr/mg Protein | Conversion Rate ([12]; growth substrate Ethanol): 1.2 μmoles/hr/mg of protein | Conversion Rate ([12]; growth substrate Methanol): 1.0 μmoles/hr/mg of protein | Conversion Rate ([12]; growth substrate Methylamine): 0.9 μmoles/hr/mg of protein | Conversion Rate ([12]; growth substrate Methylformate): 1.1 μmoles/hr/mg of protein | Conversion Rate ([12]; growth substrate Propylamine): 0.62 μmoles/hr/mg of protein | Conversion Rate [13]: 1.0 μmoles/hr/mg Protein | Conversion Rate (Pichia sp. NRRL-Y-11328; growth substrate Ethanol): 1.0 μmoles/hr/mg of protein | Conversion Rate (Pichia sp. NRRL-Y-11328; growth substrate Methanol): 1.2 μmoles/hr/mg of protein | Conversion Rate (Pichia sp. NRRL-Y-11328; growth substrate Methylamine): 0.72 μmoles/hr/mg of protein | Conversion Rate (Pichia sp. NRRL-Y-11328; growth substrate Methylformate): 0.98 μmoles/hr/mg of protein | Conversion Rate (Pichia sp. NRRL-Y-11328; growth substrate Propylamine): 0.60 μmoles/hr/mg of protein | oxidation by the purified enzyme [14]: catalyzed the oxidation | Conversion Rate [15]: 0.82 μmoles/hr/mg Protein | Conversion Rate ([16]; growth substrate Ethanol): 1.0 μmoles/hr/mg of protein | Conversion Rate ([16]; growth substrate Methanol): 1.5 μmoles/hr/mg of protein | Conversion Rate ([16]; growth substrate Methylamine): 1.2 μmoles/hr/mg of protein | Conversion Rate ([16]; growth substrate Methylformate): 1.3 μmoles/hr/mg of protein | Conversion Rate ([16]; growth substrate Propylamine): 0.9 μmoles/hr/mg of protein | Conversion Rate ([17]; growth substrate Ethanol): 1.0 μmoles/hr/mg of protein | Conversion Rate ([17]; growth substrate Methanol): 1.2 μmoles/hr/mg of protein | Conversion Rate ([17]; growth substrate Methylamine): 1.0 μmoles/hr/mg of protein | Conversion Rate ([17]; growth substrate Methylformate): 1.2 μmoles/hr/mg of protein | Conversion Rate ([17]; growth substrate Propylamine): 0.92 μmoles/hr/mg of protein
